The nature of series [1]: X-ray diffraction (XRD) physical state. It counts as physicochemical. As to conditions: Example 2 (CU), fresh. How it is done: The physical state of the spray-dried emulsions samples was obtained with an X-ray diffractometer (APD 3520, Philips, Netherlands). The instrument was operated at 35 kV, 20 mA with Cu-Kα radiation, a theta-compensating slit, and a diffracted beam monochromator. Data were recorded between the diffraction angles (2θ) of 2° and 35°. Differential scanning calorimetry (DSC) measurement of spray dried drug powder was studied with the TA instrument Q200 V24.4 (New Castle, Del., USA) in a range of −20 to 120° C. under nitrogen flow of 70 mL/min. The spray-dried emulsions powder (3-5 mg) was accurately weighed into DSC stainless steel pan. An empty pan was used as a reference. The heating rate of 10° C./min was used.
The physical state of the spray-dried emulsions samples was obtained with an X-ray diffractometer (APD 3520, Philips, Netherlands). The instrument was operated at 35 kV, 20 mA with Cu-Kα radiation, a theta-compensating slit, and a diffracted beam monochromator. Data were recorded between the diffraction angles (2θ) of 2° and 35°.

The conditions of series [2]: FF in a hard gelatin capsule, launched 1975; cited from earlier work.

As for `COc1cc(/C=C/C(=O)CC(=O)/C=C/c2ccc(O)c(OC)c2)ccc1O` [CU, Curcumin], the XRD physical state result in series [1] was “crystalline form”. Turning to `CC(C)OC(=O)C(C)(C)Oc1ccc(C(=O)c2ccc(Cl)cc2)cc1` [FF, Fenofibrate], the maximum bioavailability in series [2] was 60%.

The record behind these values is patent US20230173075A1, “ENCAPSULATED COMPOSITIONS AND USE OF OCTENYLSUCCINIC ANHYDRIDE STARCH AS EMULSIFYING AGENT” (Kansas State University Research Foundation, priority 2020, published 2023).
